According to patent US20100311877A1, “NOVEL TRIAZINE DERIVATIVE, ULTRAVIOLET ABSORBER, AND RESIN COMPOSITION” (FUJIFILM Corporation, priority 2009, published 2010):

What was measured:
[1] = Light resistance of PMMA polymer film (remaining amount after metal halide lamp exposure); assay type: physicochemical; conditions: 50-μm PMMA film on glass, 0.2 mass % compound in coating solution, illuminance 90 mW/cm^2, 63° C., humidity 50%, 400 hours after exposure, transmittance at maximum absorption wavelength
Protocol: A binder solution was prepared by dissolving 22 mass % of a PMMA resin (“[…] BR-80”, trade name; product of Mitsubishi Rayon) in methylene chloride. A coating solution was then prepared by dissolving 0.2 mass % of Exemplified compound (1) in the resulting binder solution. Using glass as a base material, the resulting coating solution was applied thereto with a 200 μm blade and dried at 100° C. for 10 minutes into a 50-μm thick coating to prepare a film. […] The absorbance of the film was measured with a spectrophotometer “UV-3600” (trade name; product of Shimadzu Corp). The film was exposed to light of a metal halide lamp (“Eye super UV tester”, trade name; product of Iwasaki Electric) under the conditions of illuminance of 90 mW/cm^2, temperature of 63° C., and humidity of 50%. The remaining amount of each compound 400 hours after exposure was measured. The remaining amount was computed in accordance with the following equation: Remaining amount(%)=100×(100-(transmittance after exposure))/(100-(transmittance before exposure)) The transmittance is a value measured at the maximum absorption wavelength of each compound.

[2] = Measurement of pKa (perchloric acid titration, absorption spectrum); assay type: physicochemical; conditions: in acetonitrile, 70% perchloric acid (acetic acid as solvent) added dropwise; ratio of triazine-free compound and proton adduct from absorbance at λmax
Protocol: Exemplified compound (1) was dissolved in acetonitrile to give its absorption coefficient of 1. […] At that time, a solution absorption spectrum was measured and a ratio of a triazine-free compound and a proton adduct at each pH was computed from the absorbance at λmax. The value of pKa was determined from a point at which the ratio became 1. […] The absorption spectrum was measured using a spectrophotometer “UV-3600” (trade name; product of Shimadzu Corp), while pH was measured using a pH meter “H[…]” (trade name; product of Toa Denpa Kogyo).

| Remaining amount (%) [1] [%] | pKa [2] | Compound |
| --- | --- | --- |
| 21 | -4.4 | CCCCCCCCOc1ccc(-c2nc(-c3ccc(C)cc3C)nc(-c3ccc(C)cc3C)n2)c(O)c1 [Comparative compound B] |
| 63 | -4.9 | CCCCCCOc1ccc(-c2nc(-c3ccccc3)nc(-c3ccccc3)n2)c(O)c1 [Comparative compound A] |
